Experimental data published in patent US7262220B2, “Urea- and urethane-substituted acylureas, process for their preparation and their use” (Sanofi-Aventis Deutschland GmbH, priority 2002, dated 2007).
Like-named read-outs stand apart in the source and are kept apart here.

Molecular target: T1, human glycogen phosphorylase a (Homo sapiens, UniProt P06737)
T1 sequence (P06737 1-847): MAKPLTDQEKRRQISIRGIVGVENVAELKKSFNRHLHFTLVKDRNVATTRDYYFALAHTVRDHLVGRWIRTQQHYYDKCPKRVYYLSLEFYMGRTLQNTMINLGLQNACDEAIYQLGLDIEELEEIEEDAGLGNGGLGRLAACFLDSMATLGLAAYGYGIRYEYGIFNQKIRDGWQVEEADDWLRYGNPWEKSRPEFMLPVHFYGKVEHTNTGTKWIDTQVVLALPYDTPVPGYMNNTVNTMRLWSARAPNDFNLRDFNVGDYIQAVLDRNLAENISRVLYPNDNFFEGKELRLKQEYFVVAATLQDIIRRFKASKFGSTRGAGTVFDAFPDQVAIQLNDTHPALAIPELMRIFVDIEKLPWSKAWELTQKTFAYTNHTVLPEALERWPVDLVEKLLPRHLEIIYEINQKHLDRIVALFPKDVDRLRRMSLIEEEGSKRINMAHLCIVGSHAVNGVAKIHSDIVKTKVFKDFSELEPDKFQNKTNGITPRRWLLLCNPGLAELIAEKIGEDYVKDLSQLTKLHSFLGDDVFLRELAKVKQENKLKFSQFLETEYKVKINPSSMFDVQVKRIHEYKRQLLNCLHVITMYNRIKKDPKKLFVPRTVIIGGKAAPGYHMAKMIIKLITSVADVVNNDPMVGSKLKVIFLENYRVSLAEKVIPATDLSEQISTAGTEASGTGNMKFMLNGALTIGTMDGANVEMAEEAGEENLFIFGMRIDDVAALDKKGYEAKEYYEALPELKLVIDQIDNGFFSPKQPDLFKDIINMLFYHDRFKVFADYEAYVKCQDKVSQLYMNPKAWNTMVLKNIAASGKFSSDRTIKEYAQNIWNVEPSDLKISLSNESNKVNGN
Test: Glycogen phosphorylase a activity assay
Format: biochemical
Settings: read-out: % inhibition at 10 μM
Description: Glycogen Phosphorylase a Activity Assay
The effect of compounds on the activity of the active form of glycogen phosphorylase (GPa) was measured in the reverse direction by following the synthesis of glycogen from glucose 1-phosphate by determining the liberation of inorganic phosphate. All the reactions were carried out as duplicate determinations in microtiter plates with 96 wells (Half Area Plates, Costar No 3696), measuring the change in absorption owing to the formation of the reaction product at the wavelength specified hereinafter in a Multiskan Ascent Elisa Reader (Lab Systems, Finland). In order to measure the GPa enzymic activity in the reverse direction, the general method of Engers et al. (Engers H D, Shechosky S, Madsen N B, Can J Biochem 1970 July; 48(7):746-754) was used to measure the conversion of glucose 1-phosphate into glycogen and inorganic phosphate, with the following modifications: human glycogen phosphorylase a (for example with 0.76 mg of protein/ml (Aventis Pharma Deutschland GmbH), dissolved in buffer solution E (25 mM β-glycerophosphate, pH 7.0, 1 mM EDTA and 1 mM dithiothreitol) was diluted with buffer T (50 mM hepes, pH 7.0, 100 mM KCl, 2.5 mM EDTA, 2.5 mM MgCl26H2O) and addition of 5 mg/ml glycogen to a concentration of 10 μg of protein/ml. […] The baseline glycogen phosphorylase a activity in the absence of test substance was determined by adding 10 μl of buffer solution T (0.1% DMSO). The mixture was incubated at room temperature for 40 minutes, and the liberated […] was measured by the general method of Drueckes et al. (Drueckes P, Schinzel R, Palm D, Anal Biochem 1995 Sep. 1; 230(1):173-177) with the following modifications: 50 μl of a stop solution of 7.3 mM ammonium molybdate, 10.9 mM zinc acetate, 3.6% ascorbic acid, 0.9% SDS are added to 50 μl of the enzyme mixture. After incubation at 45° C. for 60 minutes, the absorption at 820 nm was measured. […]

[1] = 10 μM test substance, GPa activity measured in the reverse direction (liberation of inorganic phosphate), duplicate determinations

Row | SMILES | inhibition at 10 µM [1] | inhibition at 10 µM
1 | COC(=O)Nc1ccc(C(=O)O)cc1NC(=O)NC(=O)c1ccc(F)cc1Cl [Example 3, 3-[3-(2-Chloro-4-fluorobenzoyl)ureido]-4-methoxycarbonylaminobenzoic acid] | 53% | 
2 | COC(=O)/C=C/c1ccc(NC(=O)Oc2ccc(Cl)cc2)cc1NC(=O)NC(=O)c1cc(F)c(F)cc1Cl [Example 110, Methyl (E)-3-[2-[3-(2-chloro-4,5-difluorobenzoyl)ureido]-4-(4-chloro-phenoxycarbonylamino)phenyl]acrylate] |  | 73%
3 | COc1cc2c(=O)[nH]c(=O)[nH]c2cc1NC(=O)NC(=O)c1cc(F)c(F)cc1Cl [Example 132, 1-(2-Chloro-4,5-difluorobenzoyl)-3-(6-methoxy-2,4-dioxo-1,2,3,4-tetrahydro-quinazolin-7-yl)urea] | 97% | 
